Experiments:
Assay in all cases: DSF Tm panel
Type in all cases: binding
Conditions in all cases: 10 μM compound
[1] = biological target: T1, ULK1A (Homo sapiens, UniProt O75385)
T1 construct: purchased in-house DSF kinase panel (SGC-style construct names; the trailing letter is the construct ID)
T1 sequence (O75385 1-283): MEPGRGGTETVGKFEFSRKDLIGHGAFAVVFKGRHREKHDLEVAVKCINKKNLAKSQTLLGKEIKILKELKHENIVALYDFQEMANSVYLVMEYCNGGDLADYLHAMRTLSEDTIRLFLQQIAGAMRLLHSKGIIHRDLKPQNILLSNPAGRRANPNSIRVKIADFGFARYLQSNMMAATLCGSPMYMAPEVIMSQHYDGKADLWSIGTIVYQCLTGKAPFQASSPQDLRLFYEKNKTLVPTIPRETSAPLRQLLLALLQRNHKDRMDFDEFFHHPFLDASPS

[2] = biological target: T2, BRD4 (BRD4A) (Homo sapiens, UniProt O60885)
T2 construct: purchased in-house DSF kinase panel (SGC-style construct names; the trailing letter is the construct ID)

[3] = biological target: T3, BMX (BMXA) (Homo sapiens, UniProt P51813)
T3 construct: purchased in-house DSF kinase panel (SGC-style construct names; the trailing letter is the construct ID)
T3 sequence (P51813 411-675): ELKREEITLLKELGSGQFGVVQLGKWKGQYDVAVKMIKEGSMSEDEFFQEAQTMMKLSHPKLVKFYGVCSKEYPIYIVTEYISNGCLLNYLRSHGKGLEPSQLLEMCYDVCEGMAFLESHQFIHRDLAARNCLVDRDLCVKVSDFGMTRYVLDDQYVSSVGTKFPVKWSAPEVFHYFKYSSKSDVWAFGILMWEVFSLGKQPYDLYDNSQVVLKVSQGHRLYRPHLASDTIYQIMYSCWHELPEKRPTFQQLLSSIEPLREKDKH

[4] = biological target: T4, BMPR2A (Homo sapiens, UniProt Q13873)
T4 construct: purchased in-house DSF kinase panel (SGC-style construct names; the trailing letter is the construct ID)
T4 sequence (Q13873 27-1038): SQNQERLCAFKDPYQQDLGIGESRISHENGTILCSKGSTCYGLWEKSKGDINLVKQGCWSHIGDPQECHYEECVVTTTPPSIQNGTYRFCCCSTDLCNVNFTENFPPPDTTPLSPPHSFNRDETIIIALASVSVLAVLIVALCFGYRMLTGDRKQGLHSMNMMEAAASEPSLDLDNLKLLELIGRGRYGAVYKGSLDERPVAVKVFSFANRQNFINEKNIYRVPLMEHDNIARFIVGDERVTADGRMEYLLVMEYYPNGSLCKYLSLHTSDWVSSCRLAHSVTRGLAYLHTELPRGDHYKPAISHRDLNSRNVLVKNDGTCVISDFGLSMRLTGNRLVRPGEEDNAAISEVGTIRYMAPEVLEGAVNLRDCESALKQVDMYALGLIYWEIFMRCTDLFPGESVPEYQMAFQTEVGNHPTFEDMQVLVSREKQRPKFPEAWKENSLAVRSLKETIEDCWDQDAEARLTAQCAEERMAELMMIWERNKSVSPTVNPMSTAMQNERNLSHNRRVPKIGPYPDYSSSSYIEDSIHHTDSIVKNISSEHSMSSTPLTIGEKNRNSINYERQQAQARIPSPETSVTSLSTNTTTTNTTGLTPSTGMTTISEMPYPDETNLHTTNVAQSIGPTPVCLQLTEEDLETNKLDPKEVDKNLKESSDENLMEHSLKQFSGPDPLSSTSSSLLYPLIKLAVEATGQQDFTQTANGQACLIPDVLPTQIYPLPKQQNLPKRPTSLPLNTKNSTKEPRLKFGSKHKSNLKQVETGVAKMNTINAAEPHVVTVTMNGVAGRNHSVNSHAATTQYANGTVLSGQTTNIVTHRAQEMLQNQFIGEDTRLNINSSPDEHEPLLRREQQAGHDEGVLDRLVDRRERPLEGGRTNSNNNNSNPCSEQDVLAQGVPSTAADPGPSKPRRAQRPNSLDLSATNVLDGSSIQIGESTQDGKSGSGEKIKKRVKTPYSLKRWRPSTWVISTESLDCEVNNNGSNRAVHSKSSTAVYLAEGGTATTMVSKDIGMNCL

[5] = biological target: T5, PLK4A (Homo sapiens, UniProt O00444)
T5 construct: purchased in-house DSF kinase panel (SGC-style construct names; the trailing letter is the construct ID)
T5 sequence (O00444 2-275): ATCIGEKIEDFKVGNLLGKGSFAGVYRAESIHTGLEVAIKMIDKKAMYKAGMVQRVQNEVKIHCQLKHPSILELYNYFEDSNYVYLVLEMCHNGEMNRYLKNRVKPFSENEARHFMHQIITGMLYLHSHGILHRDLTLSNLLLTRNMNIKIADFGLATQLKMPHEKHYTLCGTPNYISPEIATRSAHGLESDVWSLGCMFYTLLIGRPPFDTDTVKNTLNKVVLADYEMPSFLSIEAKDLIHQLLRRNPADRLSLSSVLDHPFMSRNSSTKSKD

[6] = biological target: T6, CLK3A (Homo sapiens, UniProt P49761)
T6 construct: purchased in-house DSF kinase panel (SGC-style construct names; the trailing letter is the construct ID)
T6 sequence (P49761 127-484): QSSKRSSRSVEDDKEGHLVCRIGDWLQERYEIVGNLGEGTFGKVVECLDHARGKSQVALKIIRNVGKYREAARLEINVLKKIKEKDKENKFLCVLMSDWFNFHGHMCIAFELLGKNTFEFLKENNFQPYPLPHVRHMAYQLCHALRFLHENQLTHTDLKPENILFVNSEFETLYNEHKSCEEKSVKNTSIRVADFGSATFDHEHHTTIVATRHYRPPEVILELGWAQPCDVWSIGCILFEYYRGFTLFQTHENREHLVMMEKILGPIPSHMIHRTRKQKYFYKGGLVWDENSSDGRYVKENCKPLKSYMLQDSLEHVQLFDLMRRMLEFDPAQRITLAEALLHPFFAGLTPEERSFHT

[7] = biological target: T7, SRCA (Homo sapiens, UniProt P12931)
T7 construct: purchased in-house DSF kinase panel (SGC-style construct names; the trailing letter is the construct ID)
T7 sequence (P12931 254-536): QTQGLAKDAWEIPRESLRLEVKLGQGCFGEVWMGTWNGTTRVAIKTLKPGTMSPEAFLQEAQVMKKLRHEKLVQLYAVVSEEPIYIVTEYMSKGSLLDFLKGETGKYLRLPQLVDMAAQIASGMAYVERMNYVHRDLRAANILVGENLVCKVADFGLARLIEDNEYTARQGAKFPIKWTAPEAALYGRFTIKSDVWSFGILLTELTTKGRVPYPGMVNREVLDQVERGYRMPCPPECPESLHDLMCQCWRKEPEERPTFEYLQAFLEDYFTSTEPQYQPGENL

[8] = biological target: T8, PAK1A (Homo sapiens, UniProt Q13153)
T8 construct: purchased in-house DSF kinase panel (SGC-style construct names; the trailing letter is the construct ID)
T8 sequence (Q13153 249-545): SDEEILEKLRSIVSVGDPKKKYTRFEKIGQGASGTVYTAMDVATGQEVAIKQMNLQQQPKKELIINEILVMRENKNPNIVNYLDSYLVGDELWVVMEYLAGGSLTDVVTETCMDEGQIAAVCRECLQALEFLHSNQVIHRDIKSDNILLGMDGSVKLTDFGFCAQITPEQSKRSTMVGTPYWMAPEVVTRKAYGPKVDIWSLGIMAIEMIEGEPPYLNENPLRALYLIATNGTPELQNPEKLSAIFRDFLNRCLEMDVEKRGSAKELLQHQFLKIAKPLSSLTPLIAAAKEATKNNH

[9] = biological target: T9, PIM3A (Homo sapiens, UniProt Q86V86)
T9 construct: purchased in-house DSF kinase panel (SGC-style construct names; the trailing letter is the construct ID)

[10] = biological target: T10, EPHA7A (Homo sapiens, UniProt Q15375)
T10 construct: purchased in-house DSF kinase panel (SGC-style construct names; the trailing letter is the construct ID)
T10 sequence (Q15375 590-899): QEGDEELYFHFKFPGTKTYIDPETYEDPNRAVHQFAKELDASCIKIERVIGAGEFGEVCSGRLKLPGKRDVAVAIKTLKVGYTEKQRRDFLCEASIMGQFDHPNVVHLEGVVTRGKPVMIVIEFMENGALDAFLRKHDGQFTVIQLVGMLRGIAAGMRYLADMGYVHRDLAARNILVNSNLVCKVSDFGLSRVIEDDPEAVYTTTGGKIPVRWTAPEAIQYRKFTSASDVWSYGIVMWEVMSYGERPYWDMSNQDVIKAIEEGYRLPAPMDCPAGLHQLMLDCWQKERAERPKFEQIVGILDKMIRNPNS

[11] = biological target: T11, BRAFA (Homo sapiens, UniProt P15056)
T11 construct: purchased in-house DSF kinase panel (SGC-style construct names; the trailing letter is the construct ID)
T11 sequence (P15056 448-723): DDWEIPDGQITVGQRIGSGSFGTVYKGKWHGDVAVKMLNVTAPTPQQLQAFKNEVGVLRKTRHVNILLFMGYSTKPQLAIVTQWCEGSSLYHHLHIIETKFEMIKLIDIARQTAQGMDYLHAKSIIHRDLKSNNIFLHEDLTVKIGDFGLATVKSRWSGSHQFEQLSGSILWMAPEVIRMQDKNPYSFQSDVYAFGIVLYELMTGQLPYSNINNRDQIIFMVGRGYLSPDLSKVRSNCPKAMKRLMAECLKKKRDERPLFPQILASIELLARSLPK

[12] = biological target: T12, MST3A (Homo sapiens, UniProt Q9Y6E0)
T12 construct: purchased in-house DSF kinase panel (SGC-style construct names; the trailing letter is the construct ID)
T12 sequence (Q9Y6E0 whole entry): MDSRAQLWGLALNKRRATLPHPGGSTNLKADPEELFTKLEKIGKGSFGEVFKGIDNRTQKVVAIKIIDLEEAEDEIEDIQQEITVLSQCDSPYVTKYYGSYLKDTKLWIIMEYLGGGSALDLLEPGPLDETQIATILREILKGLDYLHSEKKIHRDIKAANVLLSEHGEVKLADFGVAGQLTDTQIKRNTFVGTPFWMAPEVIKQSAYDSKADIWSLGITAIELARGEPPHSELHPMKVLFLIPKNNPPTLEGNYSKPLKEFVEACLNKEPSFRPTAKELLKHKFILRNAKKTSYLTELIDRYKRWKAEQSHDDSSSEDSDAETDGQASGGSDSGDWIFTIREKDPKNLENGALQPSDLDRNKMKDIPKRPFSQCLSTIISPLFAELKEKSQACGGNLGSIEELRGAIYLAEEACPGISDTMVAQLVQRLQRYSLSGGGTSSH

[13] = biological target: T13, MAPK14A (Homo sapiens, UniProt Q16539)
T13 construct: purchased in-house DSF kinase panel (SGC-style construct names; the trailing letter is the construct ID)
T13 sequence (Q16539 whole entry): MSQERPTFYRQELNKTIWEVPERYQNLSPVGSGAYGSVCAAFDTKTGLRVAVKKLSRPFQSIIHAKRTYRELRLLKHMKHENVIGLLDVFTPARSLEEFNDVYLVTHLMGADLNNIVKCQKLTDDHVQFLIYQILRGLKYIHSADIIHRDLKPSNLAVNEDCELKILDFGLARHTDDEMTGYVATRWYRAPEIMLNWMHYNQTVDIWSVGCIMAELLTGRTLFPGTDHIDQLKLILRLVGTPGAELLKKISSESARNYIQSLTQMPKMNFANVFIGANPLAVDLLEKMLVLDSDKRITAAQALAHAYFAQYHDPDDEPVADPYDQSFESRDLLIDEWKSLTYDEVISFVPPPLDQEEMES

Row | Compound | ΔTm at 10 µM [1] | ΔTm at 10 µM [2] | ΔTm at 10 µM [3] | ΔTm at 10 µM [4] | ΔTm at 10 µM [5] | ΔTm at 10 µM [6] | ΔTm at 10 µM [7] | ΔTm at 10 µM [8] | ΔTm at 10 µM [9] | ΔTm at 10 µM [10] | ΔTm at 10 µM [11] | ΔTm at 10 µM [12] | ΔTm at 10 µM [13]
1 | O=C(NCc1cccc(Cl)c1)Nc1ccc2cc1OCCOCCNc1ccn3ncc-2c3n1 [compound 18] | 0.3 °C | 1.5 °C | 1.4 °C | 2.9 °C | 3.2 °C | 0.3 °C | 2.6 °C | 0.7 °C | 3 °C | 0.8 °C | 0.6 °C | 0.7 °C | 0.3 °C
2 | Cc1cc(Br)ccc1CNC(=O)Nc1ccc2cc1OCCOCCNc1ccn3ncc-2c3n1 [compound 24] | 0 °C | 1.4 °C | 1.8 °C | 2.3 °C | 2.3 °C | 0.2 °C | 1.7 °C | 1.1 °C | 2.8 °C | 2 °C | -0.3 °C | -4.3 °C | 2 °C
3 | O=C(NCc1ccccc1Cl)Nc1ccc2cc1OCCOCCNc1ccn3ncc-2c3n1 [compound 17] | 0.3 °C | 1.3 °C | 1.2 °C | 2.6 °C | 3.9 °C | 0.1 °C | 1.8 °C | 0.6 °C | 2.4 °C | 0.4 °C | 0.8 °C | 0.7 °C | 0 °C
4 | Cc1ccc(F)cc1CNC(=O)Nc1ccc2cc1OCCOCCNc1ccn3ncc-2c3n1 [compound 26] | 0.1 °C | 0.5 °C | 0.3 °C | 3.4 °C | 3.3 °C | 0.1 °C | 2.2 °C | 0.7 °C | 4 °C | 2 °C | -0.6 °C | -2 °C | 2.7 °C
5 | O=C(NCc1ccc(Cl)cc1Cl)Nc1ccc2cc1OCCOCCNc1ccn3ncc-2c3n1 [compound 20] | 0.6 °C | 1.8 °C | 1.6 °C | 1.1 °C | 2.8 °C | 0.3 °C | 1.2 °C | 2.5 °C | 3.3 °C | 1 °C | 0.4 °C | 0 °C | 0.8 °C
6 | CN1CCN(C(=O)Nc2ccc3cc2OCCOCCNc2ccn4ncc-3c4n2)CC1 [compound 35] | 0.2 °C | -0.4 °C | 0.3 °C | 3.5 °C | 3 °C | 0.7 °C | 0.7 °C | -0.1 °C | 1.6 °C | -1.4 °C | 1.2 °C | 0.4 °C | -0.3 °C
7 | Cc1cc(Cl)ccc1CNC(=O)Nc1ccc2cc1OCCOCCNc1ccn3ncc-2c3n1 [compound 23] | 0.3 °C | 2 °C | 1.8 °C | 1.5 °C | 2.8 °C | 0.4 °C | 1.5 °C | 2 °C | 2.2 °C | 1 °C | 0.5 °C | 0.3 °C | 0.3 °C
8 | C[C@H](NC(=O)Nc1ccc2cc1OCCOCCNc1ccn3ncc-2c3n1)c1ccccc1 [compound 34] | -0.1 °C | -0.1 °C | 0.1 °C | 5.1 °C | 4.7 °C | 0 °C | 1.4 °C | 0.3 °C | 4.4 °C | 1.9 °C | -0.5 °C | -7.8 °C | 1.3 °C
9 | O=C(NCc1ccccc1C(F)(F)F)Nc1ccc2cc1OCCOCCNc1ccn3ncc-2c3n1 [compound 27] | 0.4 °C | 1.8 °C | 3 °C | 2.8 °C | 3.9 °C | 0.2 °C | 2.5 °C | 1.5 °C | 4.6 °C | 3 °C | -0.4 °C | -3.4 °C | 2.6 °C

Further lines, results first:

Row | ΔTm at 10 µM [1] | ΔTm at 10 µM [2] | ΔTm at 10 µM [3] | ΔTm at 10 µM [4] | ΔTm at 10 µM [5] | ΔTm at 10 µM [6] | ΔTm at 10 µM [7] | ΔTm at 10 µM [8] | ΔTm at 10 µM [9] | ΔTm at 10 µM [10] | ΔTm at 10 µM [11] | ΔTm at 10 µM [12] | ΔTm at 10 µM [13] | Compound
10 | 0.6 °C | 2.1 °C | 2.7 °C | 3.2 °C | 3.3 °C | 0.4 °C | 2.3 °C | 1.8 °C | 4.3 °C | 3.5 °C | 0 °C | -4.5 °C | 3.1 °C | O=C(NCc1ccc(C(F)(F)F)cc1)Nc1ccc2cc1OCCOCCNc1ccn3ncc-2c3n1 [compound 28]
11 | 0.4 °C | 0.3 °C | -0.1 °C | 4 °C | 3 °C | 0.2 °C | 2 °C | 0.1 °C | 3.9 °C | 1.1 °C | -0.4 °C | -7.7 °C | 0.9 °C | COc1ccccc1CNC(=O)Nc1ccc2cc1OCCOCCNc1ccn3ncc-2c3n1 [compound 29]
12 | 0.5 °C | 1.2 °C | 1.1 °C | 4.4 °C | 4.6 °C | 0.2 °C | 2.6 °C | 1 °C | -4.8 °C | 2.9 °C | -0.2 °C | -6.4 °C | 2.4 °C | COc1ccc(CNC(=O)Nc2ccc3cc2OCCOCCNc2ccn4ncc-3c4n2)cc1F [compound 32]
13 | 0.2 °C | 0.7 °C | 0.3 °C | 3.7 °C | 5.5 °C | 0.5 °C | 2.6 °C | 0.5 °C | 5.1 °C | 1.9 °C | -0.6 °C | -5.3 °C | 1.4 °C | COc1cc(CNC(=O)Nc2ccc3cc2OCCOCCNc2ccn4ncc-3c4n2)ccc1F [compound 33]
14 | 0.6 °C | 0.6 °C | 1.4 °C | 4.6 °C | 4.9 °C | 0 °C | 3.2 °C | 0.5 °C | 4.9 °C | 1.8 °C | -0.5 °C | -5.3 °C | 1.5 °C | COc1ccc(CNC(=O)Nc2ccc3cc2OCCOCCNc2ccn4ncc-3c4n2)cc1 [compound 31]
